Experiments:
His‐YBX1 = experiment: Microscale thermophoresis (MST), His-YBX1 wild type; format: binding; settings: PBS (pH 7.4) with 0.05% Tween‐20, peptide 10 nM to 500 µM, NT-647-NHS labelled protein; at least three experiments
Description: The recombinant plasmids pGEX and pET‐28a expressing GST‐YBX1 and His‐YBX1, respectively, were transformed into E. coli BL21 to generate two recombinant strains pGEX‐GST‐YBX1 and pET‐28a‐His‐YBX1. These strains were inoculated into LB medium and cultured with ampicillin or kanamycin, and isopropylthio‐β‐D‐galactoside at 16°C overnight. Post‐culturing, the cells were collected and sonicated in PBS.
Proteins with labels were dissolved in a solution of PBS (pH 7.4) with 0.05% Tween‐20. […] After incubation, the mixture was moved to silica capillaries and thermophoresis was assessed using a NanoTemper Monolith NT.115 device from NanoTemper Technologies GmbH. Dissociation constant (Kd) values were determined using the law of mass action formula in NanoTemper Analysis 1.5.41 software. All microscale thermophoresis (MST) experiments were conducted at least three times.

[1] = tested on: Histone H3K4me1 and H3K4me3 peptides; experiment: Dot blot of antibody specificity; format: binding; settings: 1:1000, 16 h at 4°C, nitrocellulose, chemiluminescence
Description: Next, the membranes were washed with 1×TBST in order to eliminate any antibodies that were not bound. Following washing, the membranes were exposed to secondary antibodies that were linked to HRP.

Binding of His-YBX1 to peptide (MST) (His‐YBX1)	Substance	Antibody specificity towards the corresponding modification [1]
no discernible binding affinity	ART‐Kme0/1/3‐QTARKSTGGKAPRKQL [H3, chemically synthesized unmethylated histone H3 peptide of 20 amino acids (GenScript)]	–
–	H3K4me1 antibody: anti‐H3K4me1 (1:1000; Abcam; ab176877)	high specificity
–	H3K4me3 antibody: anti‐H3K4me3 (1:1000; Abcam; ab213224)	high specificity

Source: paper PMC11225074 (Clinical and Translational Medicine, 2024)
